Results from US7183267B2, “β-lactamase inhibitors and methods of use thereof” (priority 2003, dated 2007).

Tested on: methicillin resistant S. aureus ATCC 33591 (MRSA-ATCC)
Experiment: Matrix system: oxacillin plus β-lactamase inhibitor, MRSA-ATCC
Assay type: cell-based
Parameters: key to extent of growth (numerical code): 0 = no growth, 1 = faint, 2 = fair, 3 = equal to solvent control
Experimental: To each well of a 96 well microtiter plate was added 47.5 μl of MHB. A volume of 2.5 μl of each dilution of oxacillin was then transferred to appropriate wells containing the medium. All wells, except the sterility control wells, were then inoculated with 50 μl of a diluted cell suspension to give a final volume of 100 μl and a final cell density of 5×10^4 CFU/well. The volume in the sterility control wells was adjusted to 100 μl with MHB. A sterile pipette tip was used to mix the contents of each well (one tip was used going from the low to the high concentration in the same column). The microtiter plates were covered with the lids and were placed in large Stratagene Big Blue plates (Cat. # 400041). Four large kimwipes moistened with tap water were placed near the edges of the Stratagene plates to prevent evaporation of the medium. The microtiter plates were incubated for at least 24 hours at 35° C. The plates were then evaluated for growth in each well. Controls included: medium sterility and negative control (medium and bacteria only).
A numerical code was used to evaluate the extent of growth as indicated below. • 0: absence of growth • 1: barely visible (faint) growth • 2: fair growth but less than the negative solvent control • 3: growth is equivalent to the negative solvent control.
The lowest dose at which no visible growth is observed was determined to be the MIC value.
The effect of the four compounds of the present invention on oxacillin resistance of the MRSA strains was determined using a matrix system. The β-lactamase inhibitors were tested at 5 doses against up to eleven concentrations of oxacillin. […] A 96-well microtiter plate was used for the matrix system. The procedure was identical to that described above for the MIC determination, with the exception that both oxacillin and one each of the β-lactamase inhibitors was added, 2.5 μl each, to the wells prior to addition of the test organisms.
Matrix Study:Oxacillin and Compound FL201 with MRSA-ATCC
Matrix Study: Oxacillin and Compound Fl202 with MRSA-ATCC

## Cc1onc(-c2ccccc2)c1C(=O)N[C@@H]1C(=O)N2[C@@H]1SC(C)(C)[C@@H]2C(=O)O [Oxacillin, reference compound]
Staphylococcus aureus, 24 h, matrix study, compound 0 μg/ml
  MIC: 64 µg/mL
Oxacillin 0.064 μg/ml + compound 0 μg/ml
  extent of growth (numerical code): 3
Oxacillin 0.125 μg/ml + compound 0 μg/ml
  extent of growth (numerical code): 3
Oxacillin 0.25 μg/ml + compound 0 μg/ml
  extent of growth (numerical code): 3
Oxacillin 0.5 μg/ml + compound 0 μg/ml
  extent of growth (numerical code): 3
Oxacillin 1 μg/ml + compound 0 μg/ml
  extent of growth (numerical code): 3
Oxacillin 2 μg/ml + compound 0 μg/ml
  extent of growth (numerical code): 3
Oxacillin 4 μg/ml + compound 0 μg/ml
  extent of growth (numerical code): 3
Oxacillin 8 μg/ml + compound 0 μg/ml
  extent of growth (numerical code): 3
Oxacillin 16 μg/ml + compound 0 μg/ml
  extent of growth (numerical code): 2
Oxacillin 32 μg/ml + compound 0 μg/ml
  extent of growth (numerical code): 2
Oxacillin 64 μg/ml + compound 0 μg/ml
  extent of growth (numerical code): 0

## COC(=O)c1cc(B(O)O)cc([N+](=O)[O-])c1 [Compound F1202]
Matrix study, with compound 1 μg/ml
  MIC of oxacillin: 32 µg/mL
Matrix study, with compound 2 μg/ml
  MIC of oxacillin: 16 µg/mL
Matrix study, with compound 4 μg/ml
  MIC of oxacillin: 1 µg/mL
Matrix study, with compound 8 μg/ml
  MIC of oxacillin: 0.125 µg/mL
Matrix study, with compound 16 μg/ml
  MIC of oxacillin: <0.064 µg/mL
Oxacillin 0 μg/ml + compound 1 μg/ml
  extent of growth (numerical code): 3
Oxacillin 0 μg/ml + compound 2 μg/ml
  extent of growth (numerical code): 2
Oxacillin 0 μg/ml + compound 4 μg/ml
  extent of growth (numerical code): 2
Oxacillin 0 μg/ml + compound 8 μg/ml
  extent of growth (numerical code): 1
Oxacillin 0 μg/ml + compound 16 μg/ml
  extent of growth (numerical code): 1
Oxacillin 0.064 μg/ml + compound 1 μg/ml
  extent of growth (numerical code): 3
Oxacillin 0.064 μg/ml + compound 2 μg/ml
  extent of growth (numerical code): 3
Oxacillin 0.064 μg/ml + compound 4 μg/ml
  extent of growth (numerical code): 2
Oxacillin 0.064 μg/ml + compound 8 μg/ml
  extent of growth (numerical code): 1
Oxacillin 0.064 μg/ml + compound 16 μg/ml
  extent of growth (numerical code): 0
Oxacillin 0.125 μg/ml + compound 1 μg/ml
  extent of growth (numerical code): 3
Oxacillin 0.125 μg/ml + compound 2 μg/ml
  extent of growth (numerical code): 3
Oxacillin 0.125 μg/ml + compound 4 μg/ml
  extent of growth (numerical code): 2
Oxacillin 0.125 μg/ml + compound 8 μg/ml
  extent of growth (numerical code): 0
Oxacillin 0.125 μg/ml + compound 16 μg/ml
  extent of growth (numerical code): 0
Oxacillin 0.25 μg/ml + compound 1 μg/ml
  extent of growth (numerical code): 3
Oxacillin 0.25 μg/ml + compound 2 μg/ml
  extent of growth (numerical code): 2
Oxacillin 0.25 μg/ml + compound 4 μg/ml
  extent of growth (numerical code): 1
Oxacillin 0.25 μg/ml + compound 8 μg/ml
  extent of growth (numerical code): 0
Oxacillin 0.25 μg/ml + compound 16 μg/ml
  extent of growth (numerical code): 0
Oxacillin 0.5 μg/ml + compound 1 μg/ml
  extent of growth (numerical code): 3
Oxacillin 0.5 μg/ml + compound 2 μg/ml
  extent of growth (numerical code): 2
Oxacillin 0.5 μg/ml + compound 4 μg/ml
  extent of growth (numerical code): 1
Oxacillin 0.5 μg/ml + compound 8 μg/ml
  extent of growth (numerical code): 0
Oxacillin 0.5 μg/ml + compound 16 μg/ml
  extent of growth (numerical code): 0
Oxacillin 1 μg/ml + compound 1 μg/ml
  extent of growth (numerical code): 3
Oxacillin 1 μg/ml + compound 2 μg/ml
  extent of growth (numerical code): 2
Oxacillin 1 μg/ml + compound 4 μg/ml
  extent of growth (numerical code): 0
Oxacillin 1 μg/ml + compound 8 μg/ml
  extent of growth (numerical code): 0
Oxacillin 1 μg/ml + compound 16 μg/ml
  extent of growth (numerical code): 0
Oxacillin 2 μg/ml + compound 1 μg/ml
  extent of growth (numerical code): 2
Oxacillin 2 μg/ml + compound 2 μg/ml
  extent of growth (numerical code): 2
Oxacillin 2 μg/ml + compound 4 μg/ml
  extent of growth (numerical code): 0
Oxacillin 2 μg/ml + compound 8 μg/ml
  extent of growth (numerical code): 0
Oxacillin 2 μg/ml + compound 16 μg/ml
  extent of growth (numerical code): 0
Oxacillin 4 μg/ml + compound 1 μg/ml
  extent of growth (numerical code): 2
Oxacillin 4 μg/ml + compound 2 μg/ml
  extent of growth (numerical code): 2
Oxacillin 4 μg/ml + compound 4 μg/ml
  extent of growth (numerical code): 0
Oxacillin 4 μg/ml + compound 8 μg/ml
  extent of growth (numerical code): 0
Oxacillin 4 μg/ml + compound 16 μg/ml
  extent of growth (numerical code): 0
Oxacillin 8 μg/ml + compound 1 μg/ml
  extent of growth (numerical code): 2
Oxacillin 8 μg/ml + compound 2 μg/ml
  extent of growth (numerical code): 1
Oxacillin 8 μg/ml + compound 4 μg/ml
  extent of growth (numerical code): 0
Oxacillin 8 μg/ml + compound 8 μg/ml
  extent of growth (numerical code): 0
Oxacillin 8 μg/ml + compound 16 μg/ml
  extent of growth (numerical code): 0
Oxacillin 16 μg/ml + compound 1 μg/ml
  extent of growth (numerical code): 2
Oxacillin 16 μg/ml + compound 2 μg/ml
  extent of growth (numerical code): 0
Oxacillin 16 μg/ml + compound 4 μg/ml
  extent of growth (numerical code): 0
Oxacillin 16 μg/ml + compound 8 μg/ml
  extent of growth (numerical code): 0
Oxacillin 16 μg/ml + compound 16 μg/ml
  extent of growth (numerical code): 0
Oxacillin 32 μg/ml + compound 1 μg/ml
  extent of growth (numerical code): 0
Oxacillin 32 μg/ml + compound 2 μg/ml
  extent of growth (numerical code): 0
Oxacillin 32 μg/ml + compound 4 μg/ml
  extent of growth (numerical code): 0
Oxacillin 32 μg/ml + compound 8 μg/ml
  extent of growth (numerical code): 0
Oxacillin 32 μg/ml + compound 16 μg/ml
  extent of growth (numerical code): 0
Oxacillin 64 μg/ml + compound 1 μg/ml
  extent of growth (numerical code): 0
Oxacillin 64 μg/ml + compound 2 μg/ml
  extent of growth (numerical code): 0
Oxacillin 64 μg/ml + compound 4 μg/ml
  extent of growth (numerical code): 0
Oxacillin 64 μg/ml + compound 8 μg/ml
  extent of growth (numerical code): 0
Oxacillin 64 μg/ml + compound 16 μg/ml
  extent of growth (numerical code): 0
